From US9962341B2, “Active pharmaceutical ingredient (API) comprising cannabinoids for use in the treatment of cancer” (GW Pharma Limited, priority 2014, dated 2018)
Read-outs that look alike come from different tables or passages of the source.

Key:
Format in all cases: cell-based
[1] = tested on: NCI-H460; experiment: Cell viability (CellTiter-Blue, 72 h), NCI-H460 lung cancer cells; settings: Homo sapiens
Description: (§1) The following cell lines were tested in this example: Lung Cancer (A549, NCI-H460); Pancreatic cancer (PANC1, Mia-Pa-Ca-2); Melanoma (WM115, A375); Ovarian cancer (OVCAR3, SKOV3); Gastric cancer (MKN45, HGC-27); Renal cancer (ACHN) and Bladder Cancer (RT112).
(§2) Each tumour cell line was maintained in vitro in RPMI 1640+10% heat inactivated FBS and 2 mM L-glutamine (growth media) at 37° C. in 5% CO2 and humidified conditions. The cells were harvested, washed, re-suspended into growth medium and counted. The cells were re-suspended into assay media (RPMI 1640+5% heat inactivated FBS+ and 2 mM L-glutamine) at 4×10^4 cells/ml (dependent upon cell type) and plated into the middle 240 wells of 384 well tissue culture plates (Corning CellBind, black-wall plates) 25 μl/well aliquots; 50 μl of growth media was aliquoted into the outer wells. There were 3 plates for each cell line.
(§3) The plates were incubated overnight at 37° C., in 5% humidified CO2.
(§4) The phytocannabinoid test compounds were prepared in 100% DMSO vehicle at a stock concentration of 20 and 40 mM.
(§5) Starting with the 20 mM stock in DMSO, this was serially diluted (2 fold) in DMSO in a 96-well plate, to 20 (no dilution), 10, 5, 2.5, 1.25, 0.625, 0.315, 0.157 and […]. Following this, 10 ul of each compound dilution was diluted into 990 ul of 1% (v/v) FBS media in a deep well block making the final concentrations of 200, 100, 50, 25, 12.5, 6.25, 3.125, 1.56 and 0.79 μM (2× final assay concentrations and 1% DMSO).
(§6) An equal volume of each cannabinoid in the combination (stock concentration 40 mM) was mixed together to make a stock of 20 mM of each cannabinoid in DMSO. This was serially diluted (2 fold) in DMSO in a 96-well plate, to 20 (no dilution), 10, 5, 2.5, 1.25, 0.625, 0.315, 0.157 and […]. Following this, 10 ul of each combination dilution was diluted into 990 ul of 1% (v/v) FBS media in a deep well block making the final concentrations of 200, 100, 50, 25, 12.5, 6.25, 3.125, 1.56 and 0.79 μM (2× final assay concentrations and 1% DMSO).
(§7) Taxotere SOC was prepared in 100% DMSO to give a stock concentration of 10 mM. This was diluted in DMSO from the stock solution to 200 μM, then serially diluted (3-fold) in DMSO to 200 (no dilution), 66.66, 22.22, 7.41, 2.47, 0.82, 0.27, 0.09, 0.03 μM. 10 ul of each of the taxotere dilutions was diluted in 990 ul of 1% (v/v) FBS media making the final concentrations of 2, 0.67, 0.22, 0.074, 0.0247, 0.0082, 0.0027 0.0009, 0.0003 μM (2× final assay concentrations and 1% DMSO).
(§8) The plates were incubated for 72 h at 37° C. in 5% humidified CO2. To develop the plates, at 72 h, 10 μl of CellTiter-Blue™ reagent was added to each test/blank well.
(§9) The plates were incubated at 37° C., 5% humidified CO2. Fluorescence was measured using a Flex II Station plate reader (570 nm excitation wavelength, 600 nm emission wavelength, 590 nm cut-off) after 3 h.
(§10) The phytocannabinoid compounds CBD, CBGA, CBG, CBDA, THCV and THC were tested on a panel of lung (A549, NCI-H460), pancreatic (PANC1, Mia-Pa-Ca-2), melanoma (WM115, A375), ovarian (OVCAR3, SKOV3), gastric (MKN45, HGC-27), renal (ACHN) and bladder (RT112) cancer cell lines according to the protocol for 72 h in media containing 1% FBS.
(§11) The IC50 values for each phytocannabinoid and combination of CBD with the other phytocannabinoids was calculated for each cell line. The raw data values expressed in relative fluorescent units were normalised to the vehicle for each individual plate and any reduction in fluorescence indicated a decrease in viability.
(§12) This calculation was as described in Example 1 above.

[2] = tested on: A549; experiment: Cell viability (CellTiter-Blue, 72 h), A549 lung cancer cells; settings: Homo sapiens
Description: as §1, §2, §3, §4, §5, §6, §7, §8, §9, §10, §11, §12

[3] = tested on: Mia-Pa-Ca-2; experiment: Cell viability (CellTiter-Blue, 72 h), Mia-Pa-Ca-2 pancreatic cancer cells; settings: Homo sapiens
Description: as §1, §2, §3, §4, §5, §6
Gemcitabine SOC was prepared in 100% DMSO to give a stock concentration of 20 mM. This was then serially diluted (3 fold) in DMSO in a 96-well plate, to 20 (no dilution), 6.6, 2.2, 0.741, 0.247, 0.082, 0.027, 0.009 and 0.003 mM. Following this, 10 ul of each dilution was further diluted into 990 ul of 1% (v/v) FBS media making the final concentrations of 200 (no dilution), 66.66, 22.22, 7.41, 2.47, 0.82, 0.27, 0.09, 0.03 μM (2× final assay concentrations and 1% DMSO).
as §8, §9, §10, §11, §12

[4] = tested on: OVCAR3; experiment: Cell viability (CellTiter-Blue, 72 h), OVCAR3 ovarian cancer cells; settings: Homo sapiens, OVCAR-3
Description: as §1, §2, §3, §4, §5, §6
(§13) Cisplatin (stock of 1 mg/ml=3.33 mM in water) was diluted in 1% FBS media to give a stock concentration of 1 mM. This was then diluted in 1% FBS media from the stock solution to 200 μM, then serially diluted (3-fold) in 1% FBS media to 200 (no dilution), 66.66, 22.22, 7.41, 2.47, 0.82, 0.27, 0.09, 0.03 μM (2× final assay concentrations; no DMSO).
as §8, §9, §10, §11, §12

[5] = tested on: WM115; experiment: Cell viability (CellTiter-Blue, 72 h), WM115 melanoma cells; settings: Homo sapiens, WM-115, WM115, 1% FBS
Description: as §1, §2, §3, §4, §5, §6, §13, §8, §9, §10, §11, §12

[6] = tested on: MKN45; experiment: Cell viability (CellTiter-Blue, 72 h), MKN45 gastric cancer cells; settings: Homo sapiens, MKN-45
Description: as §1, §2, §3, §4, §5, §6, §13, §8, §9, §10, §11, §12

[7] = tested on: A375; experiment: Cell viability (CellTiter-Blue, 72 h), A375 melanoma cells; settings: Homo sapiens, A-375, A375, 1% FBS
Description: as §1, §2, §3, §4, §5, §6, §13, §8, §9, §10, §11, §12

[8] = tested on: HGC-27; experiment: Cell viability (CellTiter-Blue, 72 h), HGC-27 gastric cancer cells; settings: Homo sapiens
Description: as §1, §2, §3, §4, §5, §6, §13, §8, §9, §10, §11, §12

[9] = NCI-H460, 72 h, read-out: Cell line IC50 value
[10] = A549, 72 h, read-out: Cell line IC50 value
[11] = MIA PaCa-2, 72 h, read-out: Cell line IC50 value
[12] = MIA PaCa-2, read-out: Dm (median effect dose)
[13] = NCI-H460, read-out: Dm (median effect dose)
[14] = OVCAR3, 1% FBS, 72 h, read-out: Cell line IC50 value
[15] = OVCAR3 cells, 1% FBS, read-out: Dm (potency, median effect)
[16] = 72 h, read-out: Cell line IC50 value
[17] = read-out: Dm (median effect dose)
[18] = A549, read-out: Dm (median effect dose)
[19] = MKN45, 1% FBS, 72 h, read-out: Cell line IC50 value
[20] = MKN45 cells, 1% FBS, read-out: Dm (potency, median effect)
[21] = HGC-27, HGC27 cells, 1% FBS, read-out: Dm (potency, median effect)
[22] = HGC-27, 1% FBS, 72 h, read-out: Cell line IC50 value

SMILES	IC50 [1, 9] [µM]	IC50 [2, 10] [µM]	IC50 [3, 11] [µM]	IC50 [3, 12] [µM]	IC50 [1, 13] [µM]	IC50 [4, 14] [µM]	IC50 [4, 15] [µM]	IC50 [5, 16] [µM]	IC50 [5, 17] [µM]	IC50 [2, 18] [µM]	IC50 [6, 19] [µM]	IC50 [6, 20] [µM]	IC50 [7, 16] [µM]	IC50 [7, 17] [µM]	IC50 [8, 21] [µM]	IC50 [8, 22] [µM]
CC(=O)O[C@@]12CO[C@@H]1C[C@H](O)[C@@]1(C)C(=O)[C@H](O)C3=C(C)[C@@H](OC(=O)[C@H](O)[C@@H](NC(=O)OC(C)(C)C)c4ccccc4)C[C@@](O)([C@@H](OC(=O)c4ccccc4)[C@H]21)C3(C)C [Taxotere, Docetaxel, reference compound]	0.0011	0.0006	–	–	–	–	–	–	–	–	–	–	–	–	–	–
CCCc1cc(O)c2c(c1)OC(C)(C)[C@@H]1CCC(C)=C[C@@H]21 [THCV, Tetrahydrocannabivarin]	4.6	7.4	5.2	4.79	4.53	6.5	6.51	6.5	6.43	6.59	6.5	6.88	5	5.54	3.06	4.1
CCCCCc1cc(O)c(C/C=C(\C)CCC=C(C)C)c(O)c1C(=O)O [CBGA, Cannabigerolic acid]	6.2	6.1	8.9	8.67	4.03	6.1	6.41	1.5	12.9	6.89	6.5	6.4	7.3	6.66	5.47	7.8
C=C(C)[C@@H]1CCC(C)=C[C@H]1c1c(O)cc(CCCCC)c(C(=O)O)c1O [CBDA, Cannabidiolic acid]	7.3	8.5	7.9	7.09	6.6	6.7	5.51	2.1	14.7	7.6	8.8	8.04	10.2	9.78	10.4	1.3
CCCCCc1cc(O)c2c(c1)OC(C)(C)[C@@H]1CCC(C)=C[C@@H]21 [THC, Tetrahydrocannabinol, reference compound]	3.8	5.5	2.9	2.64	3.28	5.9	4.42	2.9	3.17	4.08	4.2	4.42	2.7	2.47	2.74	2.8
C=C(C)[C@@H]1CCC(C)=C[C@H]1c1c(O)cc(CCCCC)cc1O [CBD, Cannabidiol]	2.5	3.2	2.6	2	2.55	2.8	2.14	2.4	2.77	2.87	3.4	3.91	2.9	2.66	1.72	1.5
CCCCCc1cc(O)c(C/C=C(\C)CCC=C(C)C)c(O)c1 [CBG, Cannabigerol]	4	4.3	2.2	2.06	3.96	5.3	4.33	3.1	3.1	4.23	4.3	4.16	2.1	1.89	1.73	1.6
